Results from patent US11058676B2, “Quinolinone lysyl oxidase-like 2 inhibitors and uses thereof” (PHARMAKEA, INC., priority 2016, dated 2021).

Tested on: C57Bl/6 male mice
Assay: Mouse oropharyngeal bleomycin model of lung fibrosis
Format: in vivo
Conditions: dosed prophylactically at 60 mg/kg p.o.
Description: Example B-3: Mouse Oropharyngeal Bleomycin Model of Lung Fibrosis
Lung fibrosis is induced in C57Bl/6 male mice by administering bleomycin (0.1-4 U/kg) via oropharyngeal instillation. Mice are either pretreated with vehicle or test compound (1 day to 1 hour) orally, intraperitoneally, intravenously or subcutaneously before bleomycin installation (prophylactic dosing) or 7-14 days post bleomycin instillation (therapeutic dosing). The route and frequency of dosing are based on previously determined pharmacokinetic properties for the LOXL2 inhibitor in mouse. After bleomycin instillation animals are monitored daily for weight loss and clinical signs for 14-28 days prior to sacrifice. […] For histological examination, lung slices are stained with Masson's trichrome or Picro-Sirius red to measure cross-linked collagen as an indicator of fibrosis and an Ashcroft score of lung fibrotic and inflammatory damage determined. In addition, immunohistochemistry of fibrotic proteins such as a-smooth muscle actin can be recorded. […] After the acid hydrolysis, 25-100 μl of the supernatant is dried down, resuspended in 25 μl water and the hydroxyproline content determined by the addition of 0.5 ml Chloramine T solution (140 mg Chloramine T in 6.5 ml ddH2O+1 ml n-propanol+2.5 ml 1M sodium acetate) and incubation at room temperature for 20 min. […]

## NCc1cc(=O)c2cc(Br)ccc2[nH]1 [Compound 1-3, 2-(Aminomethyl)-6-bromoquinolin-4(1H)-one]
  efficacy in mouse oropharyngeal bleomycin model of lung fibrosis: efficacious
